Reference: PubChem BioAssay AID651991 (The Scripps Research Institute Molecular Screening Center, 2013)
The source made the active and inactive calls.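 Rule for the calls: active = CC50 at or below 10 µM in either panel, but not in both panels; inactive = the rest.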

Assay: HEK293T cell cytotoxicity, dose response, cytotoxicity control for LYPLA1/LYPLA2 inhibitor project, WST-1 absorbance, serum-free and serum medium (AID 651991)
Conditions: HEK293T viability, 48 h

SMILES | CC50 (with 10% FCS) | CC50 (without serum)
O=C(CN1CCN(C(=O)c2ccco2)CC1)Nc1cc(C(F)(F)F)ccc1Cl | > 50 µM (inactive) | > 50 µM (inactive)
O=C(CN1CCN(C(=O)c2ccco2)CC1)Nc1cc(Cl)ccc1Cl | > 50 µM (inactive) | > 50 µM (inactive)
COc1ccc(N2CCN(C(=O)c3cc4c(s3)-c3ccccc3S(=O)(=O)C4)CC2)cc1 | > 50 µM (inactive) | > 50 µM (inactive)
O=C(c1cc2c(s1)-c1ccccc1S(=O)(=O)C2)N1CCN(c2ccc(Cl)cc2)CC1 | > 50 µM (inactive) | > 50 µM (inactive)
